Results as given in publication PMC8807947 (Journal of Inflammation Research, 2022).
One block for each compound: values may come before it.

Columns and labels:
[1] = system: rats; assay: Gastric ulcerogenic liability in rats
[2] = system: PGE2; conditions: read-out: PGE2 inhibition IC50; cited from earlier work
[3] = system: carrageenan induced edema in rat paw; assay: Carrageenan induced edema model in rat paw; type: in vivo; conditions: 50 mg/kg oral; for Anti-inflammatory (AI) %, range over time points: range over 1, 3 and 5 h
[4] = biological target: T1, COX-2 (Ovis aries, UniProt P79208); assay: COX-2 inhibition, enzyme immunoassay; type: biochemical, ovine; conditions: for SI = IC50 (COX-1)/ IC50 (COX-2): selectivity index
T1 sequence (P79208 17-603): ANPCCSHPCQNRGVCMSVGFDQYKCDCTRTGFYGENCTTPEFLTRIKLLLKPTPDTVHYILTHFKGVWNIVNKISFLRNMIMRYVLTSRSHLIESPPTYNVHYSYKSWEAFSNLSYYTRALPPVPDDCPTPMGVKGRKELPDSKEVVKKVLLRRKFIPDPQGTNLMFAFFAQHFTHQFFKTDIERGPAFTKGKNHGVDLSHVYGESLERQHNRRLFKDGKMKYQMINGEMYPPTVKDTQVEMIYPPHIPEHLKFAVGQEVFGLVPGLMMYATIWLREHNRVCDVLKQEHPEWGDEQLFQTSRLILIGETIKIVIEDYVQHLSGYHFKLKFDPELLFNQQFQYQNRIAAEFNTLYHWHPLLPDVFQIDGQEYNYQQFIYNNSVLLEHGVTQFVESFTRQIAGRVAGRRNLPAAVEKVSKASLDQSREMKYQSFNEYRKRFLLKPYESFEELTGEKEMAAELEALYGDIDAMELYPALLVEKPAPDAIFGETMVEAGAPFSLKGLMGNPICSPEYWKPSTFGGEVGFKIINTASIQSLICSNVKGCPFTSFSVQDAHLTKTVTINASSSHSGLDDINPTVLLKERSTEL

[5] = biological target: T2, COX-1 (Ovis aries, UniProt P05979); assay: COX-1 inhibition, enzyme immunoassay; type: biochemical, ovine
T2 sequence (P05979 25-600): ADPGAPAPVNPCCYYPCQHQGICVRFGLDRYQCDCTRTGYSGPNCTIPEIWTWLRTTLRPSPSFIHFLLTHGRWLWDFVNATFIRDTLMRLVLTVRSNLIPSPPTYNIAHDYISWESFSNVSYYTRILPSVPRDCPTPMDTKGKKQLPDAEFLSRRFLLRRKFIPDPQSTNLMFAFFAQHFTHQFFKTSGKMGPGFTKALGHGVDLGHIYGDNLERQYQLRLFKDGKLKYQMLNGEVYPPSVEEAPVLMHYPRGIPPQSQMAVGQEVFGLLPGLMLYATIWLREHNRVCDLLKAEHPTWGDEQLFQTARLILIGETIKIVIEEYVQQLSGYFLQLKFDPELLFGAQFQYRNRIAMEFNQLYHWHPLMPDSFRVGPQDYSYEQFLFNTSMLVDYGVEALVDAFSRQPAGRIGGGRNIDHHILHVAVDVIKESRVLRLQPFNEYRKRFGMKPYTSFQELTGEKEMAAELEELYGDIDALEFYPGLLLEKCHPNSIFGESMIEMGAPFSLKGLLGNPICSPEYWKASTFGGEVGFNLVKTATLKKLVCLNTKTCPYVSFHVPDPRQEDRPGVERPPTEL

[6] = system: interleukin IL-6; conditions: cited from earlier work
[7] = system: TNF-ὰ; conditions: cited from earlier work

SMILES: Cc1ccc(-c2cc(C(F)(F)F)nn2-c2ccc(S(N)(=O)=O)cc2)cc1 [Celecoxib, reference compound]
Relative Ulcerogenicity to Celecoxib [1]: 1
Ulcer Index [1]: 3.00 ± 0.09
Ulcer Number [1]: 3.25 ± 0.17
IC50 [2]: 0.1 µM
Anti-Inflammatory Activity % (AI) ([3]; 1 h): 43%
Paw edema (change of paw dimensions), mean ± SEM ([3]; 1 h): 0.83 ± 0.09
Anti-Inflammatory Activity % (AI) ([3]; 3 h): 43%
Paw edema (change of paw dimensions), mean ± SEM ([3]; 3 h): 0.80 ± 0.11
Anti-Inflammatory Activity % (AI) ([3]; 5 h): 54%
Paw edema (change of paw dimensions), mean ± SEM ([3]; 5 h): 0.65 ± 0.10

SMILES: COc1ccc2c(c1)c(CC(=O)O)c(C)n2C(=O)c1ccc(Cl)cc1 [Indomethacin, reference compound]
Relative Ulcerogenicity to Celecoxib [1]: 7.5
Ulcer Index [1]: 22.5 ± 0.21
Ulcer Number [1]: 14.25 ± 0.31

SMILES: C[C@@H]1C[C@H]2[C@@H]3CCC4=CC(=O)C=C[C@]4(C)[C@@]3(F)[C@@H](O)C[C@]2(C)[C@@]1(O)C(=O)CO [dexamethasone]
inhibition of interleukin IL-6 [6]: 86%
inhibition of TNF-ὰ [7]: 72%

More lines, main results first:

IC50 [4]: 0.95 ± 0.01 µM
SI = IC50 (COX-1)/ IC50 (COX-2) [4]: 11.82
IC50 [5]: 11.2 ± 0.27 µM
SMILES: CCOC(=O)c1ccc(/N=N/c2ccc(O)c(C3c4c([nH]c(=S)[nH]c4=O)Nc4[nH]c(=S)[nH]c(=O)c43)c2)cc1 [IIIf, Ethyl (E)-4-((3-(4,6-Dioxo-2,8-Dithioxo-1,2,3,4,5,6,7,8,9,10-Decahydropyrido[2,3-D:6,5-D’]Dipyrimidin-5-Yl)-4-Hydroxyphenyl)Diazenyl)Benzoate]
Relative Ulcerogenicity to Celecoxib [1]: 1.25
Ulcer Index [1]: 3.75 ± 0.11
Ulcer Number [1]: 3.75 ± 0.15
Anti-Inflammatory Activity % (AI) ([3]; 1 h): 52%
Anti-Inflammatory Activity % (AI) ([3]; 3 h): 59%
Paw edema (change of paw dimensions), mean ± SEM ([3]; 3 h): 0.58 ± 0.11
Anti-Inflammatory Activity % (AI) ([3]; 5 h): 66%
Paw edema (change of paw dimensions), mean ± SEM ([3]; 5 h): 0.48 ± 0.14
Anti-inflammatory (AI) %, range over time points [3]: 52–66%

IC50 [4]: 2.43 ± 0.07 µM
SI = IC50 (COX-1)/ IC50 (COX-2) [4]: 3.23
IC50 [5]: 7.84 ± 0.16 µM
SMILES: CCOC(=O)c1ccc(/N=N/c2cc(C3c4c([nH]c(=S)[nH]c4=O)Nc4[nH]c(=S)[nH]c(=O)c43)c(OC)cc2OC)cc1 [IIIh, Ethyl (E)-4-((5-(4,6-Dioxo-2,8-Dithioxo-1,2,3,4,5,6,7,8,9,10-Decahydropyrido[2,3-D:6,5-D’]Dipyrimidin-5-Yl)-2,4-Dimethoxyphenyl)Diazenyl)Benzoate]
Relative Ulcerogenicity to Celecoxib [1]: 1.75
Ulcer Index [1]: 5.25 ± 0.13
Ulcer Number [1]: 6.50 ± 0.11
Anti-Inflammatory Activity % (AI) ([3]; 1 h): 67%
Paw edema (change of paw dimensions), mean ± SEM ([3]; 1 h): 0.49 ± 0.05
Anti-Inflammatory Activity % (AI) ([3]; 5 h): 57%
Anti-inflammatory (AI) %, range over time points [3]: 57–67%

IC50 [4]: 0.69 ± 0.02 µM
SI = IC50 (COX-1)/ IC50 (COX-2) [4]: 4.71
IC50 [5]: 3.25 ± 0.07 µM
SMILES: O=c1[nH]c(=S)[nH]c2c1C(c1cc(/N=N/c3ccc(-c4nc5ccccc5s4)cc3)ccc1O)c1c([nH]c(=S)[nH]c1=O)N2 [IIIi, (E)-5-(5-((4-(Benzo[D]thiazol-2-Yl)Phenyl)Diazenyl)-2-Hydroxyphenyl)-2,8-Dithioxo-2,3,5,8,9,10-Hexahydropyrido[2,3-D:6,5-D’]Dipyrimidine-4,6(1H,7H)-Dione]
Anti-Inflammatory Activity % (AI) ([3]; 1 h): 24%
Paw edema (change of paw dimensions), mean ± SEM ([3]; 1 h): 1.10 ± 0.14
Anti-Inflammatory Activity % (AI) ([3]; 3 h): 43%
Paw edema (change of paw dimensions), mean ± SEM ([3]; 3 h): 0.80 ± 0.15
Anti-Inflammatory Activity % (AI) ([3]; 5 h): 52%
Paw edema (change of paw dimensions), mean ± SEM ([3]; 5 h): 0.68 ± 0.13
